Each structure is given as a SMILES string.

This is an account of results in paper PMC7751175, “Lateral Gene Transfer Acts As an Evolutionary Shortcut to Efficient C4 Biochemistry” (Molecular Biology and Evolution, 2020).

Holding throughout (test): malate dehydrogenase-coupled NADH oxidation at […] nm; nonlinear regression
Settings in all cases: co-substrate bicarbonate, 5 mM MgCl2, 50 mM Tris-HCl pH 7.4, 25 °C; read-out: KM(PEP)

Test [1] has as its system isoform 6, native co-opted ppc-1P3 PEPC (AANG4-8). The test is classed as biochemical, Alloteropsis angusta.
Test [2] deals with isoform 7, Donor_M ppc-1P3_M PEPC. It is filed as biochemical, Megathyrsus maximus.
The test system of test [3] is isoform 5, native co-opted ppc-1P3 PEPC (MAD1-03). The test is classed as biochemical, Alloteropsis semialata.
Test [4] deals with isoform 10, Donor_A ppc-1P3_A PEPC. It is filed as biochemical, Themeda triandra.
Test [5] deals with isoform 11, ppc-1P3_LGT:A PEPC (AUS1-01). The test is classed as biochemical, Alloteropsis semialata.
The test system of test [6] is isoform 2, native co-opted ppc-1P6 PEPC (TPE1-10). The test is classed as biochemical, Alloteropsis semialata.
For test [7], the system named is isoform 12, Donor_C ppc-1P3_C PEPC. It is filed as biochemical, Setaria barbata.
Test [8] deals with isoform 1, non-C4 ppc-1P6 PEPC (RSA5-03). It is filed as biochemical, Alloteropsis semialata.
Test [9] relates to isoform 8, ppc-1P3_LGT:M PEPC (A. cimicina). The test is classed as biochemical, Alloteropsis cimicina.

As to `C=C(OP(=O)(O)O)C(=O)O` [PEP], the Michaelis-Menten constant (Km) (usually the substrate concentration at which the rate is half of its maximum) was determined as 324 ± 23.3 µM in test [1]; 921 ± 99.1 µM in test [2]; 188 ± 12.5 µM in [3]; 687 ± 72.8 µM in [4]; 699 ± 50.4 µM in test [5]; 196 ± 12.9 µM in test [6]. For the same compound, the Michaelis-Menten constant (Km) in [7] worked out at 612 ± 55.9 µM; in [8], 319 ± 33.5 µM; in [9], 710 ± 47.2 µM.
